Source: US8071508B2, “Process for preparing paste-extruded sulfonamide compositions” (priority 2002, dated 2011)
Converted amounts (≈) assume the structure as drawn.

Assay: not given
Conditions: cited from earlier work

Compound | First pKa (conjugate acid) | Second pKa (conjugate acid) | Third pKa (conjugate acid)
O.O=C([O-])[O-].[Na+].[Na+] [Na2CO3.H2O, sodium carbonate monohydrate] | 10.2 | 6.4 | –
O=C([O-])[O-].[K+].[K+] [K2CO3, potassium carbonate] | 10.2 | 6.4 | –
O=P([O-])([O-])OP(=O)([O-])[O-].[Na+].[Na+].[Na+].[Na+] [Na4P2O7, sodium pyrophosphate] | 9.0 | 7.0 | 2.0
sodium phosphate dodecahydrate [Na3PO4.12H2O] | – | 7.2 | 2.1
O=C([O-])[O-].[Na+].[Na+] [Na2CO3, sodium carbonate] | 10.2 | 6.4 | –
O=P([O-])([O-])OP(=O)([O-])[O-].[K+].[K+].[K+].[K+] [K4P2O7, potassium pyrophosphate] | 9.0 | 7.0 | 2.0

Assay: Solubility of sulfonamide herbicide in pH 7 buffered water
Conditions: pH 7, aqueous buffer, thermodynamic from solid
Method: At least 1 times up to about 5 times the amount of sulfonamide needed for saturation is added to a mixing vessel containing stock buffer solution at the test temperature (e.g., 20° C.). The mixture is magnetically stirred in the dark while being maintained at the test temperature. Samples are periodically removed for analysis. The samples are centrifuged using a high speed, temperature-controlled centrifuge at the test temperature for about 20 minutes at ≧12000 G to remove suspended particles. An aliquot of each supernatant is taken for analysis.
The concentration of sulfonamide in the supernatant is determined by a high pressure liquid chromatography (HPLC) method suitable for the particular sulfonamide. Typically the HPLC method will use a reversed phase chromatography column and UV detection. […] Also, the pH of the supernatant is measured using a calibrated pH meter capable of resolving differences of 0.1 pH units or less to verify that the pH is 7. Samples are successively withdrawn from the mixing vessel and analyzed until three successive samples show little or no variation in concentration. The test is preferably replicated to ensure accuracy.

Compound | solubility
CCOC(=O)c1ccccc1S(=O)(=O)NC(=O)Nc1nc(Cl)cc(OC)n1 [chlorimuron-ethyl, ethyl 2-[[[[(4-chloro-6-methoxy-2-pyrimdinyl)amino]carbonyl]amino]sulfonyl]benzoate] | 1000 to 10000 µg/mL (≈ 2410 to 24100 µM)
COC(=O)c1ccccc1S(=O)(=O)NC(=O)Nc1nc(C)nc(OC)n1 [metsulfuron-methyl, methyl 2-[[[[(4-methoxy-6-methyl-1,3,5-triazin-2-yl)amino]carbonyl]amino]sulfonyl]-benzoate] | 1000 to 10000 µg/mL (≈ 2620 to 26200 µM)
COC(=O)c1ccccc1S(=O)(=O)NC(=O)Nc1nc(C)cc(C)n1 [sulfometuron-methyl, methyl 2-[[[[(4,6-dimethyl-2-pyrimidinyl)amino]carbonyl]amino]sulfonyl]benzoate] | < 1000 µg/mL
COC(=O)c1ccccc1CS(=O)(=O)NC(=O)Nc1nc(OC)cc(OC)n1 [bensulfuron-methyl, methyl 2-[[[[[(4,6-dimethoxy-2-pyrimidinyl)amino]carbonyl]amino]-sulfonyl]methyl]benzoate] | < 1000 µg/mL
COC(=O)c1ccccc1S(=O)(=O)NC(=O)N(C)c1nc(C)nc(OC)n1 [tribenuron-methyl, methyl 2-[[[[N-(4-methoxy-6-methyl-1,3,5-triazin-2-yl)-N-methylamino]carbonyl]-amino]sulfonyl]benzoate] | 1000 to 10000 µg/mL (≈ 2530 to 25300 µM)

Assay: not given
Conditions: in water at ambient temperatures, typically about 20 to 25° C.; cited from earlier work

Compound | pKa
COc1cc(OC)nc(NC(=O)NS(=O)(=O)c2ncccc2OCC(F)(F)F)n1 [trifloxysulfuron, N-[[(4,6-dimethoxy-2-pyrimidinyl)amino]-carbonyl]-3-(2,2,2-trifluoroethoxy)-2-pyridinesulfonamide] | 4.8
N-[[[2-(cyclopropylcarbonyl)phenyl]amino]sulfonyl]-N^1-(4,6-dimethoxypyrimidin-2-yl)urea [cyclosulfamuron] | 5.0
COc1cc(OC)nc(NC(=O)NS(=O)(=O)N(C)S(C)(=O)=O)n1 [amidosulfuron, N-[[[[(4,6-dimethoxy-2-pyrimdinyl)amino]carbonyl]amino]-sulfonyl]-N-methylmethanesulfonamide] | 3.6
COc1nc(C)nc(NC(=O)NS(=O)(=O)c2ccccc2OCCCl)n1 [triasulfuron, 2-(2-chloroethoxy)-N-[[(4-methoxy-6-methyl-1,3,5-triazin-2-yl)amino]carbonyl]benzenesulfonamide] | 4.6
COc1ncc(F)c2nc(S(=O)(=O)Nc3c(F)cccc3F)nn12 [florasulam, N-(2,6-difluorophenyl)-8-fluoro-5-methoxy[1,2,4]triazolo[1,5-c]pyrimidine-2-sulfonamide] | 4.5
COCCOc1ccccc1S(=O)(=O)NC(=O)N=c1nc(OC)[nH]c(OC)n1 [cinosulfuron, N-[[(4,6-dimethoxy-1,3,5-triazin-2-yl)amino]carbonyl]-2-(2-methoxyethoxy)benzenesulfonamide] | 4.7
CCOC(=O)c1cnn(C)c1S(=O)(=O)NC(=O)Nc1nc(OC)cc(OC)n1 [pyrazosulfuron-ethyl, ethyl 5-[[[[(4,6-dimethoxy-2-pyrimidinyl)amino]carbonyl]amino]sulfonyl]-1-methyl-1H-pyrazole-4-carboxylate] | 3.7
methyl 2-[[[[[4,6-bis(trifluoromethoxy)-2-pyrimidinyl]amino]carbonyl]amino]sulfonyl]-benzoate [primisulfuron-methyl] | 3.5
CCOc1nc(NC)nc(NC(=O)NS(=O)(=O)c2ccccc2C(=O)OC)n1 [ethametsulfuron-methyl, methyl 2-[[[[[4-ethoxy-6-(methylamino)-1,3,5-triazin-2-yl]amino]carbonyl]amino]sulfonyl]benzoate] | 4.6
CCOc1nc(F)cc2nc(S(=O)(=O)Nc3c(Cl)cccc3C(=O)OC)nn12 [cloransulam-methyl, methyl 3-chloro-2-[[(5-ethoxy-7-fluoro[1,2,4]-triazolo[1,5-c]pyrimidin-2-yl)sulfonyl]amino]benzoate] | 4.8
COC(=O)c1c(Cl)nn(C)c1S(=O)(=O)NC(=O)Nc1nc(OC)cc(OC)n1 [halosulfuron-methyl, methyl 3-chloro-5-[[[[(4,6-dimethoxy-2-pyrimidinyl)amino]carbonyl]amino]sulfonyl]-1-methyl-1H-pyrazole-4-carboxylate] | 3.4
